# According to the PolyMetriX glass transition set:
# ± gives the standard deviation of the reports.
row,SMILES,glass transition temperature
1,*CCCCCCOP(=O)(/N=N/c1ccc(CCOC(=O)c2cc(C(=O)OCCc3ccc(/N=N/P(=O)(O*)OC)cc3)cc(C(C)(C)C)c2)cc1)OC (repeat unit),47.00 °C
2,*CCOCCOC(=O)CCCCCCCCCCCCCCCCC(=O)O* (repeat unit),-68.00 °C
3,*/C=C/c1ccc2c(c1)C(CCCCCC)(CCCCCC)c1cc(/C=C/c3nc(*)c(C#N)c(/C=C/c4ccc(N(c5ccccc5)c5ccccc5)cc4)c3C#N)ccc1-2 (repeat unit),178.00 °C
4,*CC(COC)O* (repeat unit) [Poly(3-methoxypropylene oxide) ],-62 ± 1.2 °C
5,*Oc1ccc(NC(=O)c2cc(C(=O)Nc3ccc(*)cc3)cc(C(F)(F)C(F)(F)C(F)(F)C(F)(F)C(F)(F)C(F)(F)C(F)(F)C(F)(F)F)c2)cc1 (repeat unit),230.00 °C
6,*CCCC(*)(C)CC (repeat unit),-23.00 °C
7,*C1C(=O)N(c2ccccc2C)C(=O)C1* (repeat unit),335.00 °C
8,*OP(=O)(Oc1ccc(S(=O)(=O)c2ccc(*)cc2)cc1)OC1CCCCC1 (repeat unit),120.00 °C
9,*CC(*)C(=O)Oc1ccccc1Cl (repeat unit),318.00 °C
10,*CCC(C)O* (repeat unit),-50.00 °C
11,*OC(*)CCC (repeat unit),-41.00 °C

# Second part, the compound after the results:
row,glass transition temperature,SMILES
1,129.00 °C,*c1ccc(/C=N/c2ccc(C(c3ccccc3)c3ccc(/N=C/c4ccc(-c5ccc(*)s5)cc4)cc3)cc2)cc1 (repeat unit)
2,146.00 °C,*Oc1ccc(OC(=O)c2ccc(-c3ccc(C(*)=O)cc3)cc2-c2ccccc2)cc1C(C)(C)c1ccccc1 (repeat unit)
3,27.00 °C,*Oc1ccc(CC(NC(=O)CCc2ccc(OC(=O)CCCCCCC(*)=O)cc2)C(=O)OCCCCCC)cc1 (repeat unit)
4,226.70 °C,*c1ccc(Sc2ccc(Sc3ccc(Sc4ccc(N5C(=O)c6ccc(-c7cccc8c7C(=O)N(*)C8=O)cc6C5=O)cc4)cc3)cc2)cc1 (repeat unit)
5,340.00 °C,*c1ccc(Cc2ccc(N3C(=O)C4CCC5C(=O)N(*)C(=O)C5C4C3=O)c(C)c2)cc1C (repeat unit)
6,-23.00 °C,*CC(*)c1ccc(COCC(CC)CCCC)cc1 (repeat unit)
7,50.00 °C,*Oc1ccccc1C(=O)OC(=O)c1ccccc1OC(=O)CCCC(*)=O (repeat unit)
8,73.00 °C,*c1ccc2c(c1)C(CCCCCC)(CCCCCC)c1cc(-c3cc(OCc4ccccc4)c(*)cc3OCc3ccccc3)ccc1-2 (repeat unit)
9,162.00 °C,*Oc1ccc(S(=O)(=O)c2ccc(OC(=O)OC3C(C)(C)C(OC(*)=O)C3(C)C)cc2)cc1 (repeat unit)
10,280.50 °C,*c1ccc(Oc2ccc(S(=O)(=O)c3ccc(Oc4ccc(-c5c6c(c(*)c7ccccc57)C(=O)N(c5cccc(C(F)(F)F)c5)C6=O)cc4)cc3)cc2)cc1 (repeat unit)
11,47.00 °C,*CCCCCCOc1ccc(C(=O)OC(=O)c2ccc(O*)cc2)cc1 (repeat unit)
12,150.00 °C,*Nc1ccc(Cc2ccc(NC(=O)c3cc(NC(=O)CCCCCCCCCCN4C(=O)c5ccccc5C4=O)cc(C(*)=O)c3)cc2)cc1 (repeat unit)
13,275.00 °C,*c1ccc(Oc2ccc(N3C(=O)c4ccc(-c5ccc6c(c5)C(=O)N(*)C6=O)cc4C3=O)cc2Br)c(Br)c1 (repeat unit)
14,105.00 °C,*CC(O)COc1ccc(S(=O)(=O)c2ccc(OCC(O)COc3cccc(O*)c3)cc2)cc1 (repeat unit)
15,30.00 °C,*OC(=O)c1cccc(OCCCCCCCCCCOc2cccc(C(=O)OC3COC4C(*)COC34)c2)c1 (repeat unit)
